Assay results from patent US20130123276A1, “USE OF TELAPREVIR AND RELATED COMPOUNDS IN ATHEROSCLEROSIS, HEART FAILURE, RENAL DISEASES, LIVER DISEASES OR INFLAMMATORY DISEASES” (priority 2011, published 2013).

Biological target: T1, Recombinant human cathepsin A (Homo sapiens, UniProt P10619)
T1 construct: Recombinant human cathepsin A (residues 29-480, with a C-terminal 10-His tag); 10-His (C); purchased R&D Systems 1049-SE
T1 sequence (P10619 29-326 limits assumed): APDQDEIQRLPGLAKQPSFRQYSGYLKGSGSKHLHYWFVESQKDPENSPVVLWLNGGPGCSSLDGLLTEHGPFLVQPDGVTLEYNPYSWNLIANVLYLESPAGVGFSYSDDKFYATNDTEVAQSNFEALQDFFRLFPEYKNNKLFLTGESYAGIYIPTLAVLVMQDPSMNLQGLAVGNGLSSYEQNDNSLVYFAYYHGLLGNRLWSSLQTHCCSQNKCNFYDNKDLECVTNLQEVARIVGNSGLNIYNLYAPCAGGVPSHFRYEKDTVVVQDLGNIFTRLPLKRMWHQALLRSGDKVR
T1 sequence (P10619 327-480 limits assumed): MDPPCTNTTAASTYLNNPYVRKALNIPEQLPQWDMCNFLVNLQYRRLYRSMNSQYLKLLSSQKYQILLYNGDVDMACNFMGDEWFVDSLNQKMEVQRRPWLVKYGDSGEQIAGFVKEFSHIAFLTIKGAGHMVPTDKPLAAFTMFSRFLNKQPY
Experiment: Cathepsin A inhibitory activity
Format: biochemical
Settings: activated recombinant human cathepsin A, Bodipy FL-labeled bradykinin substrate, pH 5.5, microfluidic capillary electrophoresis
Method: Recombinant human cathepsin A (residues 29-480, with a C-terminal 10-His tag; R&D Systems, # 1049-SE) was proteolytically activated with recombinant human cathepsin L (R&D Systems, # 952-CY). Briefly, cathepsin A was incubated at 10 μg/ml with cathepsin L at 1 μg/ml in activation buffer (25 mM 2-(morpholin-4-yl)-ethanesulfonic acid (MES), pH 6.0, containing 5 mM dithiothreitol (DTT)) for 15 min at 37° C. Cathepsin L activity was then stopped by the addition of the cysteine protease inhibitor E-64 (N-(trans-epoxysuccinyl)-L-leucine-4-guanidinobutylamide; Sigma-Aldrich, # E3132; dissolved in activation buffer/DMSO) to a final concentration of 10 μM.
The activated cathepsin A was diluted in assay buffer (25 mM MES, pH 5.5, containing 5 mM DTT) and mixed with the test compound (dissolved in assay buffer containing (v/v) 3% DMSO) or, in the control experiments, with the vehicle in a multiple assay plate. […]
Uncleaved substrate and product were then separated by a microfluidic capillary electrophoresis on a LabChip® 3000 Drug Discovery System (12-Sipper-Chip; Caliper Life Sciences) and quantified by determination of the respective peak areas. Substrate turnover was calculated by dividing product peak area by the sum of substrate and product peak areas, and the enzyme activity and the inhibitory effect of the test compound thus quantified. […]

## CCC[C@H](NC(=O)[C@@H]1[C@H]2CCC[C@H]2CN1C(=O)[C@@H](NC(=O)[C@@H](NC(=O)c1cnccn1)C1CCCCC1)C(C)(C)C)C(=O)C(=O)NC1CC1 [Telaprevir, (1 S,3aR,6aS)-2-[(2S)-2-[[(2S)-2-Cyclohexyl-2-(pyrazine-2-carbonylamino)acetyl]amino]-3,3-dimethylbutanoyl]-N-[(3S)-1-(cyclopropylamino)-1,2-dioxohexan-3-yl]-3,3a,4,5,6,6a-hexahydro-1H-cyclopenta[c]pyrrole-1-carboxamide]
  IC50: 100 nM
